The values that follow are results of earlier work, collected in patent US20030176421A1, “PROKINETIC AGENTS FOR TREATING GASTRIC HYPOMOTILITY AND RELATED DISORDERS” (priority 1999, published 2003).

No end group written: not given here.

In data set [1] the test system is sensitized guinea-pig colon.
In data set [2] the test system is canine colonic smooth muscle. Particulars: in the presence of forskolin; concentration dependent.
The subject of data set [3] is pig gastric fundus.
The subject of data set [4] is guinea pig ileum longitudinal muscle. Particulars: potentiation at lower doses, inhibition at higher concentrations for theophylline; entire concentration range for the others.
Data set [5] concerns guinea-pig gastric muscle. Particulars: without altering membrane potential significantly.
For data set [6], the system named is cat lower oesophageal sphincter. Particulars: for relaxation of circular smooth muscle (LOS): cat; for cAMP and cGMP levels after exposure: cat LOS.
Data set [7] deals with human lower oesophageal sphincter.
Data set [8] relates to isolated canine internal anal sphincter.

Regarding `COc1ccc(CN(CCN(C)C)c2ccccn2)cc1` [mepyramine], in data set [1], the “initial rapid response of antigen-induced contraction” value is recorded as “blocked”.
For the compound `CCCCOc1cc(CC2CNC(=O)N2)ccc1OC` (centres unmarked) [Ro 20-1724], in data set [2], the “potency order for decrease in carbachol-induced contractile activity” value (“potency order for decrease” for short) is given as “rolipram>Ro 20-1724>isobutyl methylxanthine>SB 94120>siguazodan>zaprinast”.
As to `CCCOc1ccccc1-c1nc2[nH]nnc2c(=O)[nH]1` [zaprinast], the “potency order for decrease” value in data set [2] is listed as “rolipram>Ro 20-1724>isobutyl methylxanthine>SB 94120>siguazodan>zaprinast”. Moreover, the “relaxation of muscle strips” value in data set [3] is “induce concentration-dependent relaxations”. Also, the “effect on NANC relaxations induced by electrical stimulation at intervals” value in data set [3] (circular, but not longitudinal muscle strips) is recorded as “increases the duration of the NANC relaxations”.
Consider `Cn1c(=O)c2[nH]cnc2n(C)c1=O` [theophylline], for which the “effect on contractile response to transmural cholinergic nerve stimulation” value (“effect on contractile response” for short) in data set [4] is reported as “biphasic effect on cholinergic transmission”. Also, the “effect on slow waves” value in data set [5] was “markedly reduce the frequency of slow waves”.
In the case of `COc1cc(C(=O)OCCCN2CCCN(CCCOC(=O)c3cc(OC)c(OC)c(OC)c3)CC2)cc(OC)c1OC` [dilazep], in data set [4], the “effect on contractile response” value is reported as “depression of the contractile responses”.
Regarding `[N]=O` [NO, nitric oxide], the “increase in cGMP content” value in data set [3] is listed as ~40 fold.
For “pituitary adenylate cyclase activating peptide [PACAP]”, the “relaxation of circular smooth muscle (LOS)” value (shortened to “relaxation … (LOS)”) in data set [6] and in data set [7] was “induced concentration-dependent relaxations” in each case. Besides, the “cAMP and cGMP levels after exposure” value in data set [6] was “both cAMP and cGMP levels were increased”.
As for “vasoactive intestinal peptide (HSDAVFTDNYTRLRKQMAVKKYLNSILN; ends and bridges not checked; UniProt P01282 125-152, looked up) [VIP]”, in data set [6], the “relaxation … (LOS)” value is given as “induced concentration-dependent relaxations”; the “cAMP and cGMP levels after exposure” value is “increase in cAMP levels only”. Further, in data set [7], the “relaxation … (LOS)” value was “induced concentration-dependent relaxations”.
As to `C=C[C@@]1(C)CC(=O)[C@]2(O)[C@@]3(C)[C@@H](O)CCC(C)(C)[C@@H]3[C@H](O)[C@H](OC(C)=O)[C@@]2(C)O1` [forskolin], the “relaxation by intrinsic inhibitory neurons and associated cGMP elevation” value in data set [8] is recorded as “blocked”. The “relaxation of muscle strips” value in data set [3] was “induce concentration-dependent relaxations”.
`CN/C(=N\c1ccc(C2=NNC(=O)CC2C)cc1)NC#N` (centres unmarked) [siguazodan]: in data set [2], the “potency order for decrease” value is on record as “rolipram>Ro 20-1724>isobutyl methylxanthine>SB 94120>siguazodan>zaprinast”.
In the case of helospectin, in data set [6], the “cAMP and cGMP levels after exposure” value is “both cAMP and cGMP levels were increased”.
`CC(C)Cn1c(=O)n(C)c(=O)c2[nH]cnc21` [IBMX, 3-isobutyl-1-methylxanthine]: in data set [2], the “potency order for decrease” value is “rolipram>Ro 20-1724>isobutyl methylxanthine>SB 94120>siguazodan>zaprinast”. Further, in data set [3], the “relaxation of muscle strips” value is reported as “induce concentration-dependent relaxations”. Also, the “effect on slow waves” value in data set [5] was “markedly reduce the frequency of slow waves”.
As for `OCCN(CCO)c1nc(N2CCCCC2)c2nc(N(CCO)CCO)nc(N3CCCCC3)c2n1` [dipyridamole], in data set [4], the “effect on contractile response” value is on record as “depression of the contractile responses”.
In the case of `O=S(=O)(Nc1cccc(OCc2ccc3ccccc3n2)c1)C(F)(F)F` [ritolukast], the “slower developing late contraction after antigen” value in data set [1] is “reduced”.
Turning to `COc1ccc(C2CNC(=O)C2)cc1OC1CCCC1` (centres unmarked) [rolipram], in data set [2], the “potency order for decrease” value is given as “rolipram>Ro 20-1724>isobutyl methylxanthine>SB 94120>siguazodan>zaprinast”. Moreover, the “effect on slow waves” value in data set [5] is “markedly reduce the frequency of slow waves”.
